# Experimental data reported in PubChem BioAssay (NCI).
#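 How tested: cells in 96-well plates exposed to compound for 48 hours at five concentrations. The concentration for 50% growth inhibition is given as GI50. The concentration for full growth arrest is given as TGI.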 Calls of active or inactive are those of the source. Cut-off read from the data, not from the text of the source: active = GI50 below about 0.43 µM; inactive = the rest.
# System: SK-MEL-28 melanoma
# Experiment: NCI tumour cell line growth inhibition, 48 h
SMILES,GI50 [µM],TGI [µM]
C=C(CNCc1ccccc1)c1ccc(C(=O)Nc2ccccc2N)cc1,11.7,> 100
Cn1c2ccccc2c2c3c(c4c5cc(Br)ccc5n(C)c4c21)C(=O)N(O)C3=O,0.584,> 100
C=C1CC[C@@H]2[C@](C)(COC(C)=O)[C@H](OC(C)=O)CC[C@@]2(C)[C@@H]1CC(Sc1ccccc1)C1=CCOC1=O (stereo partly specified),1.62,3.29
CN(C)CCCNC(=O)c1cc2[nH]c3c(cnc4ccc([N+](=O)[O-])cc43)c(=O)c2n1C,19.7,33.9

# System: OVCAR-3 ovarian
# Experiment: NCI tumour cell line growth inhibition, 48 h
SMILES,GI50 [µM],TGI [µM]
C=C(CNCc1ccccc1)c1ccc(C(=O)Nc2ccccc2N)cc1,7.31,34.2
C=C1CC[C@@H]2[C@](C)(COC(C)=O)[C@H](OC(C)=O)CC[C@@]2(C)[C@@H]1CC(Sc1ccccc1)C1=CCOC1=O (stereo partly specified),1.14,2.37
CN(C)CCCNC(=O)c1cc2[nH]c3c(cnc4ccc([N+](=O)[O-])cc43)c(=O)c2n1C,19.4,45.9

# System: A498 renal
# Experiment: NCI tumour cell line growth inhibition, 48 h
SMILES,GI50 [µM],TGI [µM]
C=C(CNCc1ccccc1)c1ccc(C(=O)Nc2ccccc2N)cc1,1.06,7.83
C=C1CC[C@@H]2[C@](C)(COC(C)=O)[C@H](OC(C)=O)CC[C@@]2(C)[C@@H]1CC(Sc1ccccc1)C1=CCOC1=O (stereo partly specified),2.3,14
CN(C)CCCNC(=O)c1cc2[nH]c3c(cnc4ccc([N+](=O)[O-])cc43)c(=O)c2n1C,55.1,> 100

# System: UACC-62 melanoma
# Experiment: NCI tumour cell line growth inhibition, 48 h
SMILES,GI50 [µM],TGI [µM],outcome
C=C(CNCc1ccccc1)c1ccc(C(=O)Nc2ccccc2N)cc1,3.76,25.3,–
Cn1c2ccccc2c2c3c(c4c5cc(Br)ccc5n(C)c4c21)C(=O)N(O)C3=O,0.308,> 100,–
O=[N+]([O-])C(=C(Cl)Cl)/C(Cl)=C(\Cl)Br,–,–,inactive
C=C1CC[C@@H]2[C@](C)(COC(C)=O)[C@H](OC(C)=O)CC[C@@]2(C)[C@@H]1CC(Sc1ccccc1)C1=CCOC1=O (stereo partly specified),1.3,3.24,–

# System: HCT-116 colon
# Experiment: NCI tumour cell line growth inhibition, 48 h
SMILES,GI50 [µM],TGI [µM]
C=C(CNCc1ccccc1)c1ccc(C(=O)Nc2ccccc2N)cc1,15,> 100
C=C1CC[C@@H]2[C@](C)(COC(C)=O)[C@H](OC(C)=O)CC[C@@]2(C)[C@@H]1CC(Sc1ccccc1)C1=CCOC1=O (stereo partly specified),0.854,2.18
CN(C)CCCNC(=O)c1cc2[nH]c3c(cnc4ccc([N+](=O)[O-])cc43)c(=O)c2n1C,6.8,20.1

# System: NCI-H226 lung
# Experiment: NCI tumour cell line growth inhibition, 48 h
SMILES,GI50 [µM],TGI [µM]
C=C1CC[C@@H]2[C@](C)(COC(C)=O)[C@H](OC(C)=O)CC[C@@]2(C)[C@@H]1CC(Sc1ccccc1)C1=CCOC1=O (stereo partly specified),2.3,5.98
CN(C)CCCNC(=O)c1cc2[nH]c3c(cnc4ccc([N+](=O)[O-])cc43)c(=O)c2n1C,49.8,> 100

# System: SK-MEL-5 melanoma
# Experiment: NCI tumour cell line growth inhibition, 48 h
SMILES,GI50 [µM],TGI [µM]
C=C(CNCc1ccccc1)c1ccc(C(=O)Nc2ccccc2N)cc1,4.66,17.4
Cn1c2ccccc2c2c3c(c4c5cc(Br)ccc5n(C)c4c21)C(=O)N(O)C3=O,0.129,0.403
C=C1CC[C@@H]2[C@](C)(COC(C)=O)[C@H](OC(C)=O)CC[C@@]2(C)[C@@H]1CC(Sc1ccccc1)C1=CCOC1=O (stereo partly specified),1.42,2.82
CN(C)CCCNC(=O)c1cc2[nH]c3c(cnc4ccc([N+](=O)[O-])cc43)c(=O)c2n1C,17.1,31.1

# System: SW-620 colon
# Experiment: NCI tumour cell line growth inhibition, 48 h
SMILES,GI50 [µM],TGI [µM]
C=C(CNCc1ccccc1)c1ccc(C(=O)Nc2ccccc2N)cc1,8.5,> 100
Cn1c2ccccc2c2c3c(c4c5cc(Br)ccc5n(C)c4c21)C(=O)N(O)C3=O,0.127,> 100
C=C1CC[C@@H]2[C@](C)(COC(C)=O)[C@H](OC(C)=O)CC[C@@]2(C)[C@@H]1CC(Sc1ccccc1)C1=CCOC1=O (stereo partly specified),0.716,3.64
CN(C)CCCNC(=O)c1cc2[nH]c3c(cnc4ccc([N+](=O)[O-])cc43)c(=O)c2n1C,17.4,34.5

# System: NCI-H460 lung
# Experiment: NCI tumour cell line growth inhibition, 48 h
SMILES,GI50 [µM],TGI [µM]
C=C(CNCc1ccccc1)c1ccc(C(=O)Nc2ccccc2N)cc1,> 100,> 100
Cn1c2ccccc2c2c3c(c4c5cc(Br)ccc5n(C)c4c21)C(=O)N(O)C3=O,0.048,1.08
C=C1CC[C@@H]2[C@](C)(COC(C)=O)[C@H](OC(C)=O)CC[C@@]2(C)[C@@H]1CC(Sc1ccccc1)C1=CCOC1=O (stereo partly specified),2.24,6.03
CN(C)CCCNC(=O)c1cc2[nH]c3c(cnc4ccc([N+](=O)[O-])cc43)c(=O)c2n1C,13.3,26

# System: SF-539 CNS
# Experiment: NCI tumour cell line growth inhibition, 48 h
SMILES,GI50 [µM],TGI [µM]
C=C(CNCc1ccccc1)c1ccc(C(=O)Nc2ccccc2N)cc1,7.63,55.2
Cn1c2ccccc2c2c3c(c4c5cc(Br)ccc5n(C)c4c21)C(=O)N(O)C3=O,0.0403,0.323
CN(C)CCCNC(=O)c1cc2[nH]c3c(cnc4ccc([N+](=O)[O-])cc43)c(=O)c2n1C,17.6,31.7

# System: SK-MEL-2 melanoma
# Experiment: NCI tumour cell line growth inhibition, 48 h
SMILES,GI50 [µM],TGI [µM]
C=C(CNCc1ccccc1)c1ccc(C(=O)Nc2ccccc2N)cc1,5.49,> 100
Cn1c2ccccc2c2c3c(c4c5cc(Br)ccc5n(C)c4c21)C(=O)N(O)C3=O,> 48.2,> 100
C=C1CC[C@@H]2[C@](C)(COC(C)=O)[C@H](OC(C)=O)CC[C@@]2(C)[C@@H]1CC(Sc1ccccc1)C1=CCOC1=O (stereo partly specified),2.25,4.59
CN(C)CCCNC(=O)c1cc2[nH]c3c(cnc4ccc([N+](=O)[O-])cc43)c(=O)c2n1C,> 100,> 100

# System: HL-60(TB) leukemia
# Experiment: NCI tumour cell line growth inhibition, 48 h
SMILES,GI50 [µM],TGI [µM]
C=C(CNCc1ccccc1)c1ccc(C(=O)Nc2ccccc2N)cc1,1.2,> 100
C=C1CC[C@@H]2[C@](C)(COC(C)=O)[C@H](OC(C)=O)CC[C@@]2(C)[C@@H]1CC(Sc1ccccc1)C1=CCOC1=O (stereo partly specified),0.43,2.27
CN(C)CCCNC(=O)c1cc2[nH]c3c(cnc4ccc([N+](=O)[O-])cc43)c(=O)c2n1C,12.2,34.4

# System: MALME-3M melanoma
# Experiment: NCI tumour cell line growth inhibition, 48 h
SMILES,GI50 [µM],TGI [µM]
Cn1c2ccccc2c2c3c(c4c5cc(Br)ccc5n(C)c4c21)C(=O)N(O)C3=O,0.494,> 100
C=C1CC[C@@H]2[C@](C)(COC(C)=O)[C@H](OC(C)=O)CC[C@@]2(C)[C@@H]1CC(Sc1ccccc1)C1=CCOC1=O (stereo partly specified),1.74,3.63
CN(C)CCCNC(=O)c1cc2[nH]c3c(cnc4ccc([N+](=O)[O-])cc43)c(=O)c2n1C,21.3,40.4

# System: BT-549 breast
# Experiment: NCI tumour cell line growth inhibition, 48 h
SMILES,GI50 [µM],TGI [µM]
C=C(CNCc1ccccc1)c1ccc(C(=O)Nc2ccccc2N)cc1,15.4,> 100
C=C1CC[C@@H]2[C@](C)(COC(C)=O)[C@H](OC(C)=O)CC[C@@]2(C)[C@@H]1CC(Sc1ccccc1)C1=CCOC1=O (stereo partly specified),1.59,3.99
CN(C)CCCNC(=O)c1cc2[nH]c3c(cnc4ccc([N+](=O)[O-])cc43)c(=O)c2n1C,20.2,43.2

# System: TK-10 renal
# Experiment: NCI tumour cell line growth inhibition, 48 h
SMILES,GI50 [µM],TGI [µM]
C=C(CNCc1ccccc1)c1ccc(C(=O)Nc2ccccc2N)cc1,4.68,21.7
Cn1c2ccccc2c2c3c(c4c5cc(Br)ccc5n(C)c4c21)C(=O)N(O)C3=O,27.7,> 100
C=C1CC[C@@H]2[C@](C)(COC(C)=O)[C@H](OC(C)=O)CC[C@@]2(C)[C@@H]1CC(Sc1ccccc1)C1=CCOC1=O (stereo partly specified),2.83,5.54
CN(C)CCCNC(=O)c1cc2[nH]c3c(cnc4ccc([N+](=O)[O-])cc43)c(=O)c2n1C,14.3,28.2
